Patent US4929601A, “Tripeptides useful as immunostimulants as well as in the prevention of metastases” (Ellem Industria Farmaceutica, S.p.A., priority 1987, dated 1990)

Legend:
Human T lymphocytes = assay: Effect on cell cycle (propidium iodide, flow cytometer); assay type: cell-based; conditions: 1 μg/ml, 72 hours with PHA
Protocol: Human T lymphocytes have been incubated for 72 hours in presence of PHA and the tripeptides under examination (1 μg/ml). DNA has then been stained with propidium iodide and cells have been analyzed with a flow cytometer.

[1] = test system: B16-BL6 murine melanoma cells; assay: Antimetastatic activity: pulmonary colonization by melanoma cells inoculated in mice; assay type: in vivo, female C57BL/6 mice
Excerpt: The capacity of the tripeptide […] of inhibiting the pulmonary colonization by B16-BL6 murine melanoma cells inoculated in female C57BL/6 mice having an average body weight of 20 g (10 animals per group) has been evaluated. […] Fourteen days later, the animals have been sacrificed, the lungs have been withdrawn and examined after formalin fixation for the presence of surface melanoma colonies. A group of control animals has only been treated with the tumour cell suspension.

[2] = test system: PHA-stimulated human T lymphocytes; assay: RNA synthesis in PHA-stimulated human T lymphocytes in vitro (3H-uridine); assay type: cell-based; conditions: for RNA synthesis, 3H-uridine c.p.m. (mean): control 3835
Protocol: Human T lymphocytes, incubated in vitro for 24 hours in presence of 0.5% phytohemagglutinin (PHA) and different concentrations of the tripeptides under examination, have been analyzed for RNA synthesis (cell activation) by means of 3H-uridine labelling.

How did the “G2 + M % cells, difference from T + PHA” value (Human T lymphocytes) turn out when `N=C(N)NCCC[C@H](N)C(=O)NCC(=O)N[C@@H](CC(=O)O)C(=O)O` [ARG--GLY--ASP, L-Arginyl-glycyl-L-aspartic acid] was run?
The value was “+6.12”.

What about the “Go-Gl % cells, difference from T + PHA” value (Human T lymphocytes) of the same compound?
Its value is -5.67.

What about the “S % cells, difference from T + PHA” value (Human T lymphocytes) of the same compound?
Its value is -1.15.

What about the “CELL PHASES G2 + M % CELLS” value (Human T lymphocytes; T + PHA 6.02) of the same compound?
Its value is 12.14%.

What about the “CELL PHASES S % CELLS” value (Human T lymphocytes; T + PHA 30.61) of the same compound?
The value was 29.46%.

What about the “CELL PHASES Go-Gl % CELLS” value (Human T lymphocytes; T + PHA 63.36) of the same compound?
Its value is 57.69%.

And the “mean number of metastases” value ([1]; 3 mg/mouse i.v. together with 2×10^5 melanoma cells, lungs after 14 days, controls above 500/mouse)?
Its value is 173 /mouse.

What about the “change of mean number of metastases vs controls” value ([1]; 3 mg/mouse i.v., 7×10^4 tumour cells) of the same compound?
The value was -69%.

What about the “mean number of metastases” value ([1]; 3 mg/mouse i.v., 7×10^4 tumour cells, controls 21.6) of the same compound?
The value was 6.8.

What about the “PHA-induced human T lymphocyte activation (RNA synthesis)” value ([2]; 24 hours, 0.5% PHA) of the same compound?
The value was “able to increase”.

And the “RNA synthesis Δ %” value ([2]; peptide 0.0001 mcg/ml)?
Its value is -3%.

And the “RNA synthesis, 3H-uridine c.p.m. (mean)” value ([2]; peptide 0.0001 mcg/ml, 24 hours, 0.5% PHA)?
Its value is 3703 c.p.m.

What about the “RNA synthesis Δ %” value ([2]; peptide 0.001 mcg/ml) of the same compound?
The value was -2%.

What about the “RNA synthesis, 3H-uridine c.p.m. (mean)” value ([2]; peptide 0.001 mcg/ml, 24 hours, 0.5% PHA) of the same compound?
The value was 3741 c.p.m.

And the “RNA synthesis Δ %” value ([2]; peptide 0.01 mcg/ml)?
Its value is “+11%”.

What about the “RNA synthesis, 3H-uridine c.p.m. (mean)” value ([2]; peptide 0.01 mcg/ml, 24 hours, 0.5% PHA) of the same compound?
The value was 4259 c.p.m.

And the “RNA synthesis Δ %” value ([2]; peptide 0.1 mcg/ml)?
The value was “+18%”.

What about the “RNA synthesis, 3H-uridine c.p.m. (mean)” value ([2]; peptide 0.1 mcg/ml, 24 hours, 0.5% PHA) of the same compound?
Its value is 4516 c.p.m.

What about the “RNA synthesis Δ %” value ([2]; peptide 1 mcg/ml) of the same compound?
Its value is “+6%”.

And the “RNA synthesis, 3H-uridine c.p.m. (mean)” value ([2]; peptide 1 mcg/ml, 24 hours, 0.5% PHA)?
The value was 4068 c.p.m.

And the “RNA synthesis Δ %” value ([2]; peptide 10 mcg/ml)?
The value was “+9%”.

What about the “RNA synthesis, 3H-uridine c.p.m. (mean)” value ([2]; peptide 10 mcg/ml, 24 hours, 0.5% PHA) of the same compound?
The value was 4199 c.p.m.
